Laboratory results: the supplement of paper PMC7108870

What was measured:
[1] = test system: HEK293sieSTAT3(Y640F); assay: drug sensitivity score (DSS), cytotoxicity CellTox Green (DSS (dimensionless)); higher = more cytotoxic; extreme values may be limits of the assay; conditions: 72 h; STAT3 variant: Y640F (constitutively active)
Method in brief: (§1)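 HEK293 cells bearing a STAT3-dependent luciferase reporter and overexpressing wild-type or mutant STAT3 were incubated with compounds at 5 concentrations in 10-fold steps for 72 hours at 37°C and 5% CO2. CellTox Green fluorescence and then CellTiter-Glo luminescence were measured, and values were normalised to negative and positive control wells. In Breeze, a drug sensitivity score was computed from the dose-response curve area.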

[2] = test system: HEK293sieSTAT3(wt); assay: as above; conditions: 72 h; STAT3 variant: wild type
Method in brief: as §1

[3] = test system: HEK293sieSTAT3(Y640F); assay: drug sensitivity score (DSS), viability CellTiter-Glo (DSS (dimensionless)); higher = more growth inhibition; extreme values may be limits of the assay; conditions: 72 h; STAT3 variant: Y640F (constitutively active)
Method in brief: as §1

[4] = test system: HEK293sieSTAT3(wt); assay: as above; conditions: 72 h; STAT3 variant: wild type
Method in brief: as §1

Row | Compound | drug sensitivity score [1] | drug sensitivity score [2] | drug sensitivity score [3] | drug sensitivity score [4]
1 | COc1cc2c(NC3CCN(C(C)C)CC3)nc(N3CCC(F)(F)CC3)nc2cc1OCCCN1CCCC1 [UNC0642] (top concentration tested 10000 nM) | 7.41 | 7.38 | 9.29 | 7.97
2 | CCn1nnc2c(N3CCOCC3)nc(-c3ccc(NC(=O)Nc4ccc(C(=O)N5CCN(C)CC5)cc4)cc3)nc21 [PKI-402] (top concentration tested 2500 nM) | 0 | 5.48 | 16.7 | 16.8
3 | COc1cc2nccc(Oc3ccc(NC(=O)C4(C(=O)Nc5ccc(F)cc5)CC4)cc3)c2cc1OC [Cabozantinib] (top concentration tested 1000 nM) | 0 | 0 | 0.13 | 1.9
4 | COc1ccc(Cn2ccc3ccc(C(=O)NO)cc32)cc1 (top concentration tested 10000 nM) | 0 | 0 | 2.79 | 3.02
5 | Cc1cc(Nc2ncc(Cl)c(Nc3ccccc3S(=O)(=O)C(C)C)n2)c(OC(C)C)cc1C1CCNCC1 [Ceritinib] (top concentration tested 2500 nM) | 0 | 0.89 | 0.86 | 1.05
6 | CNc1ncc2cc(-c3cc(NC(=O)NCCC(C)(C)C)c(F)cc3C)c(C)nc2n1 (top concentration tested 10000 nM) | 0 | 0.9 | 5.64 | 3.99
7 | COc1ncc(-c2ccc3nccc(-c4ccnnc4)c3c2)cc1NS(=O)(=O)c1ccc(F)cc1F [Omipalisib] (top concentration tested 1000 nM) | 0 | 6.37 | 18.3 | 22.1
8 | CCCc1cc(C)[nH]c(=O)c1CNC(=O)c1cc(-c2ccnc(N3CCN(C)CC3)c2)cc2c1cnn2C(C)C [GSK343] (top concentration tested 10000 nM) | 5.89 | 6.89 | 6.55 | 7.6
9 | Cc1ccccc1C(C(=O)NC1CCCCC1)N(C(=O)Cn1ccnc1C)c1cccc(F)c1 (stereo not given) [AGI-5198] (top concentration tested 10000 nM) | 0 | 0 | 0.76 | 1.02
10 | CNC(=O)[C@@H](NC(=O)[C@H](CC(C)C)[C@H](O)C(=O)NO)C(C)(C)C [Marimastat] (top concentration tested 10000 nM) | 0 | 0 | 1.16 | 1.16
11 | C[C@@H](Oc1cc(-c2cnn(C3CCNCC3)c2)cnc1N)c1c(Cl)ccc(F)c1Cl [Crizotinib] (top concentration tested 1000 nM) | 0.46 | 5.34 | 1.05 | 1.97
12 | COc1cc(Nc2ncc(F)c(Nc3ccc4c(n3)N(COP(=O)(O)O)C(=O)C(C)(C)O4)n2)cc(OC)c1OC [Fostamatinib] (top concentration tested 2500 nM) | 2.07 | 3.18 | 4.33 | 4.18
13 | O=C(Nc1nc2cccc(-c3ccc(CN4CCS(=O)(=O)CC4)cc3)n2n1)C1CC1 [Filgotinib] (top concentration tested 10000 nM) | 5.91 | 6.22 | 8.86 | 6.84
14 | NC(=O)Nc1cc(-c2cccc(F)c2)sc1C(=O)N[C@H]1CCCNC1 [AZD7762] (top concentration tested 1000 nM) | 4.24 | 7.16 | 14.9 | 16.8
15 | C[C@@H]1CN(CC(=O)Nc2ccc3c(c2)Cc2cccc(-c4cc(=O)cc(N5CCOCC5)o4)c2S3)C[C@H](C)O1 (top concentration tested 25000 nM) | 5.17 | 8.78 | 8.24 | 9.16
16 | CCc1c2c(nc3ccc(O)cc13)-c1cc3c(c(=O)n1C2)COC(=O)[C@]3(O)CC [SN-38] (top concentration tested 10000 nM) | 14.3 | 22.4 | 42 | 40.7
17 | Cc1nc(C(=O)NCC(=O)O)c(O)c2ccc(Oc3ccccc3)cc12 [FG-4592] (top concentration tested 10000 nM) | 0 | 0 | 1.3 | 2.23
18 | O=C(O)CCCc1ccc(N(CCCl)CCCl)cc1 [Chlorambucil] (top concentration tested 10000 nM) | 0 | 0 | 1.45 | 0.99
19 | CNC(=O)c1cccc2cc(Oc3ccnc4cc(OCC5(N)CC5)c(OC)cc34)ccc12 [Lucitanib] (top concentration tested 10000 nM) | 0 | 7.65 | 1.79 | 5.26
20 | CN(C)CCOc1ccc(/C(=C(/CCCl)c2ccccc2)c2ccccc2)cc1 [Toremifene] (top concentration tested 10000 nM) | 2.32 | 6.99 | 2.66 | 5.41
